Measured values as given in BindingDB's records for patent WO2025049746 (Eikon Therapeutics, 2025).

Columns and labels:
[1] = molecular target: Bifunctional 3'-5' exonuclease/ATP-dependent helicase WRN (Homo sapiens, UniProt Q14191); assay: ADP-Glo Kinase Assay
Description: ATPase activity was measured using the ADP-Glo Kinase Assay following the manufacturers recommended protocol.

[2] = molecular target: T1, Bifunctional 3'-5' exonuclease/ATP-dependent helicase WRN [480-1251] (UniProt Q14191); assay: Biochemical Activity Assays
T1 construct: 480-1251
T1 sequence (Q14191 480-1251): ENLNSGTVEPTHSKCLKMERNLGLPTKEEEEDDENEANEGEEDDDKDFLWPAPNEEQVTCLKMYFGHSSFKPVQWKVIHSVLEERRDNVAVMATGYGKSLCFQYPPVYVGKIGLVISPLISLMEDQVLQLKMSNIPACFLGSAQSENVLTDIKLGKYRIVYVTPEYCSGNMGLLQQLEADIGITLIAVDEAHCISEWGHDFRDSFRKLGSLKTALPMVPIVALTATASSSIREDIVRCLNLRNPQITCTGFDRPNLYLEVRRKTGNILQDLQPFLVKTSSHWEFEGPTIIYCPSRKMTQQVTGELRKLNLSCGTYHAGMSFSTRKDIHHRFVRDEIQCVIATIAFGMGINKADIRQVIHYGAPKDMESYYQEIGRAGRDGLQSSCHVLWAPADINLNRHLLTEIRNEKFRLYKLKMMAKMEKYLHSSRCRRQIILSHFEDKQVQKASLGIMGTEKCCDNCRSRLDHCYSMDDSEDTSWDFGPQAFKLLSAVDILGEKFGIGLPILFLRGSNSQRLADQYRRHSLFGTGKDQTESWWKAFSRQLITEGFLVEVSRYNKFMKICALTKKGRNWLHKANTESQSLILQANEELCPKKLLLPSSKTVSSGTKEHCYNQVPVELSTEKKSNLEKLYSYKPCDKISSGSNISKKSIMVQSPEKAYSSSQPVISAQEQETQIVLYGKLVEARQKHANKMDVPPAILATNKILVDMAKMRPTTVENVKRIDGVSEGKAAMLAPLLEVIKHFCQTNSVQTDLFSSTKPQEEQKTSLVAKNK
Description: The pure fractions were pooled and desalted/buffer exchanged into storage buffer using a HiTrap desalting column. […] First, WRN alone was pre-incubated with DMSO or compound of interest for 15 minutes. To initiate the reaction, ATP, dsDNA substrate, and ssDNA competitor (ssDNA_comp: […]) were added and incubated at room temperature for 20 minutes at which point DNA unwinding activity was monitored by measuring Cy3 fluorescence. After obtaining the reading, the ATPase activity was measured using the ADP-Glo Kinase Assay following the manufacturers recommended protocol. […] Compounds were assayed in a 10-point dose response in duplicate at a 1% DMSO final assay concentration.

Sequence of Bifunctional 3'-5' exonuclease/ATP-dependent helicase WRN (Q14191 whole entry): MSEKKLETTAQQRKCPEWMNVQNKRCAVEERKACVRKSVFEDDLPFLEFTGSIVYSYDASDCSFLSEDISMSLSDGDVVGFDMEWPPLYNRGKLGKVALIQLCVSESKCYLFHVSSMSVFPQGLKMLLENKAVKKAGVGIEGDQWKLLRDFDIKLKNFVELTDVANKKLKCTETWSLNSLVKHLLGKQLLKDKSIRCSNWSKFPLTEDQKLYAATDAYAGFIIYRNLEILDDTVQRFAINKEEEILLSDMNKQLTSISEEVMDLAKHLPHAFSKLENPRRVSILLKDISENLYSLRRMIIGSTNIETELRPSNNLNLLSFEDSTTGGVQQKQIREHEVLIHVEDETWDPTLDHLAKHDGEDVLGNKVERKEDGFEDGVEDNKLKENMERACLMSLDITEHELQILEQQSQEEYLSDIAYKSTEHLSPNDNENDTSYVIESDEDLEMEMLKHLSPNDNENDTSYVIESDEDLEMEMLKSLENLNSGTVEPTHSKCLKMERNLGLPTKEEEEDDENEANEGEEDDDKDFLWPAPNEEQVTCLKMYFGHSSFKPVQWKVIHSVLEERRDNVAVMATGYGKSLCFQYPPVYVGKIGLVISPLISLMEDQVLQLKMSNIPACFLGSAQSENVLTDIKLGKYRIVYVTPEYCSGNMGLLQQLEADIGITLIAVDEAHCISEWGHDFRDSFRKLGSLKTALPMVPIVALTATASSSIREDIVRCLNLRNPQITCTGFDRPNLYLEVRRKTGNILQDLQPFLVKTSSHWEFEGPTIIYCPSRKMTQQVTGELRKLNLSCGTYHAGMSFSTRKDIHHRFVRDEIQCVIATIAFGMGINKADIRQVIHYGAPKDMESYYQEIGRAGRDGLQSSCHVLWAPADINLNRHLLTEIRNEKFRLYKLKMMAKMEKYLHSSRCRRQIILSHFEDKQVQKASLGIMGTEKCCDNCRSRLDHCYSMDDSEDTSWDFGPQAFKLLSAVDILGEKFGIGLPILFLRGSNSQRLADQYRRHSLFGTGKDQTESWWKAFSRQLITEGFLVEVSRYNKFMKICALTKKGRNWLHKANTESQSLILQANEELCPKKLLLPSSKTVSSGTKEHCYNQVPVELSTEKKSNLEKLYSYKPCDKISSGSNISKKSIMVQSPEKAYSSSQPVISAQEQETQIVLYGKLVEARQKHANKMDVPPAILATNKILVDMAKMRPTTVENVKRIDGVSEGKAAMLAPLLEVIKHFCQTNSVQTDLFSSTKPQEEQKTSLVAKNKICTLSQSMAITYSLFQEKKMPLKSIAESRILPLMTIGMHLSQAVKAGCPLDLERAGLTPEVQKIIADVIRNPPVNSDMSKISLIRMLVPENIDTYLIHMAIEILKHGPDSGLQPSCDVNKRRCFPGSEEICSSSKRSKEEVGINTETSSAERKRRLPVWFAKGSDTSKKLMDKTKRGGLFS

SMILES	IC50 [1] [nM]	IC50 [2] [nM]
CCc1c(N2CCN(C(=O)c3ncnc(C)c3O)CC2)c(=O)n2nc(-c3cc4c(cnn4C)cc3C)nc2n1CC(=O)Nc1ccc(C(F)(F)F)cc1Cl [WO2025049746, Example 306]	29700	29700
CCc1c(N2CCN(C(=O)c3ccccc3NS(=O)(=O)C3CC3)CC2)c(=O)n2nc(-c3cccc4c3OCCO4)nc2n1CC(=O)Nc1ccc(C(F)(F)F)cc1Cl [WO2025049746, Example 379]	202	135
CCc1c(N2CCN(C(=O)c3ncnc(C)c3O)CC2)c(=O)n2nc(-c3ccc4c(c3F)COC4(C)C)nc2n1CC(=O)Nc1ccc(C(F)(F)F)cc1Cl [WO2025049746, Example 216]	37	37
CCc1c(N2CCN(C(=O)c3ncnc(C)c3O)CC2)c(=O)n2nc(-c3ccc4c(c3)CN(C)CC4)nc2n1CC(=O)Nc1ccc(C(F)(F)F)cc1Cl [WO2025049746, Example 308]	47	49
CCc1c(N2CCN(C(=O)c3nc4n(c(=O)c3OCc3ccccc3)CCOC4)CC2)c(=O)n2nc(N(C)C)nc2n1CC(=O)Nc1ccc(C(F)(F)F)cc1Cl [WO2025049746, Example 84]	40.7	38.4
CCc1c(N2CCN(C(=O)c3ccccc3NS(=O)(=O)C3CC3)CC2)c(=O)n2nc(-c3ccc4c(c3)OCO4)nc2n1CC(=O)Nc1ccc(C(F)(F)F)c2c1CC2 [WO2025049746, Example 111]	308	251
CCc1c(N2CCN(C(=O)c3ncnc(C)c3O)CC2)c(=O)n2nc(-c3ccc4ncncc4c3)nc2n1CC(=O)Nc1ccc(C(F)(F)F)cc1Cl [WO2025049746, Example 263]	24	23
CCc1c(N2CCN(C(=O)c3ncnc(C)c3O)CC2)c(=O)n2nc(-c3cc4cn(C)nc4cc3F)nc2n1CC(=O)Nc1ccc(C(F)(F)F)cc1Cl [WO2025049746, Example 256]	23	22
CCc1c(N2CCN(C(=O)c3ncnc(C)c3O)CC2)c(=O)n2nc(-c3ccn4nc(C)cc4c3)nc2n1CC(=O)Nc1ccc(C(F)(F)F)cc1Cl [WO2025049746, Example 247]	26	27
CCc1c(N2CCN(C(=O)c3ncnc(C)c3O)CC2)c(=O)n2nc(-c3ccc4c(c3)C(F)(F)CC4)nc2n1CC(=O)Nc1ccc(C(F)(F)F)cc1Cl [WO2025049746, Example 178]	42	39
CCc1c(N2CCN(C(=O)c3ncnc(C)c3O)CC2)c(=O)n2c(C)c(-c3ccc4c(c3)COC4)nc2n1CC(=O)Nc1ccc(C(F)(F)F)cc1Cl [WO2025049746, Example 451]	6940	6910
CCc1c(N2CCN(C(=O)c3ncnc(C)c3O)CC2)c(=O)n2nc(-c3ccc4c(c3)OCC4)nc2n1CC(=O)Nc1ccc(C(F)(F)F)cc1Cl [WO2025049746, Example 12]	34.9	27.9
CCc1c(N2CCN(C(=O)c3ncnc(C)c3O)CC2)c(=O)n2nc(-c3ccc4c(c3)OCCN4)nc2n1CC(=O)Nc1ccc(C(F)(F)F)cc1Cl [WO2025049746, Example 281]	27	31
CCc1c(N2CCN(C(=O)c3ncnc(C)c3O)CC2)c(=O)n2nc(-c3ccc4n[nH]cc4c3)nc2n1CC(=O)Nc1ccc(C(F)(F)F)cc1Cl [WO2025049746, Example 258]	16	15
CCc1c(N2CCN(C(=O)c3ncnc(C)c3O)CC2)c(=O)n2nc(N3CCCOCC3)nc2n1CC(=O)Nc1ccc(C(F)(F)F)cc1Cl [WO2025049746, Example 25]	63.9	48.8
CCc1c(N2CCN(C(=O)c3ncnc(C)c3O)CC2)c(=O)n2nc(-c3cccc4c3OCO4)nc2n1CC(=O)Nc1ccc(C(F)(F)F)cc1Cl [WO2025049746, Example 16]	24.9	22.4
CCc1c(N2CCN(C(=O)c3ccccc3NS(=O)(=O)C3CC3)CC2)c(=O)n2nc(N3C[C@H]4COC[C@H]4C3)nc2n1CC(=O)Nc1ccc(C(F)(F)F)c2c1CC2 [WO2025049746, Example 112]	58.3	45.7
CCc1c(N2CCN(C(=O)c3ncnc(C)c3O)CC2)c(=O)n2nc(-c3ccc4c(cnn4CC(F)F)c3)nc2n1CC(=O)Nc1ccc(C(F)(F)F)cc1Cl [WO2025049746, Example 293]	33	34
CCc1c(N2CCN(C(=O)c3ncnc(C)c3O)CC2)c(=O)n2nc(-c3cc4c(cc3C)C(C)(C)OC4)nc2n1CC(=O)Nc1ccc(C(F)(F)F)cc1Cl [WO2025049746, Example 213]	85	58
CCc1c(N2CCN(C(=O)c3ncnc(C)c3O)CC2)c(=O)n2nc(-c3ccc4conc4c3)nc2n1CC(=O)Nc1ccc(C(F)(F)F)cc1Cl [WO2025049746, Example 265]	40	40
CCc1c(N2CCN(C(=O)c3ncnc(C)c3O)CC2)c(=O)n2nc(-c3ccc4c(c3)CCOC4)nc2n1CC(=O)Nc1ccc(Cl)c(OC(F)F)c1Cl [WO2025049746, Example 406]	46	36

SMILES	IC50 [1] [nM]	IC50 [2] [nM]
CCc1c(N2CCN(C(=O)c3ncnc(C)c3O)CC2)c(=O)n2nc(-c3ccc4c(cnn4C)c3)nc2n1CC(=O)Nc1ccc(C(F)(F)F)cc1Cl [WO2025049746, Example 321]	20	23
CCc1c(N2CCN(C(=O)c3nocc3O)CC2)c(=O)n2nc(-c3ccc4c(c3)COC4)nc2n1CC(=O)Nc1ccc(C(F)(F)F)cc1Cl [WO2025049746, Example 439]	50	53
CCc1c(N2CCN(C(=O)c3ncnc(C)c3O)CC2)c(=O)n2nc(-c3ccc4c(c3)C(C)CO4)nc2n1CC(=O)Nc1ccc(C(F)(F)F)cc1Cl (configuration not stated) [WO2025049746, Example 170]	51	41
CCc1c(N2CCN(C(=O)c3ncnc(C)c3O)CC2)c(=O)n2nc(C3=CCOCC3)nc2n1CC(=O)NC12CC(CCC(F)(F)F)(C1)C2 [WO2025049746, Example 361]	29700	29700
CCc1c(N2CCN(C(=O)c3nc4n(c(=O)c3O)CCOC4)CC2)c(=O)n2nc(-c3ccc4c(c3)OCO4)nc2n1CC(=O)Nc1ccc(C(F)(F)F)cc1Cl [WO2025049746, Example 86]	21.5	21.3
CCc1c(N2CCN(C(=O)c3ncnc(C)c3O)CC2)c(=O)n2nc(C3=CCOCC3)nc2n1CC(=O)Nc1ccc(C(F)(F)F)c2cccnc12 [WO2025049746, Example 365]	63	44
CCc1c(N2CCN(C(=O)c3ncnc(C)c3O)CC2)c(=O)n2nc(C3=CCOCC3)nc2n1CC(=O)Nc1c(Cl)cc(C(F)(F)F)c2scnc12 [WO2025049746, Example 373]	64	51
CCc1c(N2CCN(C(=O)c3ncnc(C)c3O)CC2)c(=O)n2nc(-c3ccc4c(c3)CO[C@H]4C(F)(F)F)nc2n1CC(=O)Nc1ccc(C(F)(F)F)cc1Cl [WO2025049746, Example 274]	493	554
CCc1c(N2CCN(C(C)=O)CC2)c(=O)n2nc(C3=CCOCC3)nc2n1CC(=O)Nc1ccc(C(F)(F)F)cc1Cl [WO2025049746, Example 52]	39.4	28.6
CCc1c(N2CCN(S(=O)(=O)C3CC3)CC2)c(=O)n2nc(C3=CCOCC3)nc2n1CC(=O)Nc1ccc(C(F)(F)F)cc1Cl [WO2025049746, Example 60]	38.5	44.5
CCc1c(N2CCN(C(=O)c3cc4nnn(C)c4cc3OC)CC2)c(=O)n2nc(-c3ccc4c(c3)COC4)nc2n1CC(=O)Nc1ccc(C(F)(F)F)cc1Cl [WO2025049746, Example 429]	118	94
CCc1c(N2CCN(C(=O)c3ncnc(C)c3O)CC2)c(=O)n2nc(-c3ccn4c(C)ncc4c3)nc2n1CC(=O)Nc1ccc(C(F)(F)F)cc1Cl [WO2025049746, Example 218]	44	34
CCc1c(N2CCN(C(=O)c3ncnc(C)c3O)CC2)c(=O)n2nc(-c3ccc(OCC(=O)O)cc3)nc2n1CC(=O)Nc1ccc(C(F)(F)F)cc1Cl [WO2025049746, Example 330]	25	33
CCc1c(N2CCN(C(=O)c3nc4n(c(=O)c3O)CCOC4)CC2)c(=O)n2nc(-c3ccc4c(c3)CCOC4)nc2n1CC(=O)Nc1ccc(C(F)(F)F)cc1Cl [WO2025049746, Example 90]	34.6	29.2
CCc1c(N2CCN(C(=O)/C=C/C(=O)c3ccc(OC)cc3)CC2)c(=O)n2nc(C3=CCOCC3)nc2n1CC(=O)Nc1ccc(C(F)(F)F)cc1Cl [WO2025049746, Example 344]	289	242
CCc1c(N2CCN(C(=O)c3nsc(N4CCN(C)CC4)c3O)CC2)c(=O)n2nc(-c3ccc4c(c3)COC4)nc2n1CC(=O)Nc1ccc(C(F)(F)F)cc1Cl [WO2025049746, Example 443]	65	65
CCc1c(N2CCN(C(=O)c3ncnc(C)c3O)CC2)c(=O)n2nc(C3CCC3)nc2n1CC(=O)Nc1ccc(C(F)(F)F)cc1C [WO2025049746, Example 79]	539	456
CCc1c(N2CCN(C(=O)c3ncnc(C)c3O)CC2)c(=O)n2nc(-c3cc(C)c4nn(C)cc4c3)nc2n1CC(=O)Nc1ccc(C(F)(F)F)cc1Cl [WO2025049746, Example 299]	29	31
CCc1c(N2CCN(C(=O)c3ncnc(C)c3O)CC2)c(=O)n2nc(-c3cccc4c3CCO4)nc2n1CC(=O)Nc1ccc(C(F)(F)F)cc1Cl [WO2025049746, Example 348]	86	62
CCc1c(N2CCN(C(=O)c3ncnc(C)c3O)CC2)c(=O)n2nc(-c3ccc4c(c3)CC[C@H]4OC)nc2n1CC(=O)Nc1ccc(C(F)(F)F)cc1Cl [WO2025049746, Example 208]	39	34
